PMC6928796, “Near-Infrared Markers based on Bacterial Phytochromes with Phycocyanobilin as a Chromophore” (International Journal of Molecular Sciences, 2019)

How the values were obtained:
iRFP713 [1] = target: T1, iRFP713 (Rhodopseudomonas palustris, UniProt G1FNL7, C15S); assay: absorption and fluorescence spectroscopy; BV/PCB competition; format: binding; details: not covalent; overnight with both tetrapyrroles, BV to PCB molar ratio 0.02 to 80
T1 construct: gene iRFP

iRFP713 [2] = target: T1, iRFP713; assay: absorption, fluorescence, zinc-stained SDS-PAGE; BV/PCB competition; format: binding; details: not covalent; apoprotein with 2-fold excess PCB, pH 8.0, 4 °C

Compound	absorption and fluorescence spectroscopy; BV/PCB competition (iRFP713 [1])	absorption, fluorescence, zinc-stained SDS-PAGE; BV/PCB competition (iRFP713 [2])
C=CC1=C(C)C(=Cc2[nH]c(C=C3N=C(C=C4NC(=O)C(C)=C4C=C)C(C)=C3CCC(=O)O)c(CCC(=O)O)c2C)NC1=O [BV, biliverdin IXα]	The binding affinity of BV ligand to iRFP713/C15S	
C/C=C1/C(=C/c2[nH]c(/C=C3N=C(/C=C4\NC(=O)C(CC)=C4C)C(C)=C\3CCC(=O)O)c(CCC(=O)O)c2C)NC(=O)[C@@H]1C [PCB, phycocyanobilin]		iRFP713/C15S, lacking the conserved Cys15 residue, forms a fluorescent complex with PCB
